The compounds below were run against T1, Rhesus PDE2A3 (Macaca mulatta, UniProt B3VTJ2) (assay: PDE2 fluorescence polarization (IMAP FP) inhibition assay, rhesus enzyme). Conditions: Lab A; read-out: Rhesus PDE2 Ki (nM) Lab A.
T1 construct: made in house; host or cells: AD293 cells, transient transfection, pcDNA3.3-TOPO; lysate supernatant used as enzyme
T1 sequence (B3VTJ2 1-941): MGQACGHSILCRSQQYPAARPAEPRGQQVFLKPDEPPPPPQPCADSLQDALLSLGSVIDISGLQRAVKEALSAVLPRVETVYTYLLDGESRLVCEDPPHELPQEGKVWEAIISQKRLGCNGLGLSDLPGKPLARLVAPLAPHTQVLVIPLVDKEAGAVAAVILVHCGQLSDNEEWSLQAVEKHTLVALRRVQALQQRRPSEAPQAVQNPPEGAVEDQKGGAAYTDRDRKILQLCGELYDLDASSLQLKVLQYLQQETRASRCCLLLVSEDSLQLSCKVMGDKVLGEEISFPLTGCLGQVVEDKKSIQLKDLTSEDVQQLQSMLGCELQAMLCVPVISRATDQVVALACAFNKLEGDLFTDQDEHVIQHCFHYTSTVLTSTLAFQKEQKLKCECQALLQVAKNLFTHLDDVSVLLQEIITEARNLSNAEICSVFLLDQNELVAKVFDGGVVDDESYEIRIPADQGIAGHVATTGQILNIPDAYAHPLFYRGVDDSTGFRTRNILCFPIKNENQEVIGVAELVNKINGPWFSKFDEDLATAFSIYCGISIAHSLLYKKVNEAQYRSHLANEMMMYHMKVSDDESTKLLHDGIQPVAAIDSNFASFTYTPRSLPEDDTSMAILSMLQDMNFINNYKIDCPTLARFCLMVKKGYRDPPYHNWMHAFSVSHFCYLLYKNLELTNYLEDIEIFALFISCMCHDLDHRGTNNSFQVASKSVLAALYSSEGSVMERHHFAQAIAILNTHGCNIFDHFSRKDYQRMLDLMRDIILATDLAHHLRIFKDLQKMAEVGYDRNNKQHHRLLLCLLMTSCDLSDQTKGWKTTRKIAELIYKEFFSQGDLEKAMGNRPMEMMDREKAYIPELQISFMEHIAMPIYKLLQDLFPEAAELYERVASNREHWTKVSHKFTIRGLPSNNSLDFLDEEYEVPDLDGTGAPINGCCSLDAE
Format: biochemical, rhesus macaque
In short: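 Lysate of AD293 cells transiently expressing rhesus PDE2A3, diluted for ~20% substrate conversion, with 50 nM FAM-cAMP and 1 uM cGMP activator in pH 7.2 Tris/MgCl2 buffer, 60 min at room temperature.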

Row | Compound | Ki [nM]
1 | COc1cc(C(F)(F)F)ccc1[C@@H](C)n1cc(-c2cc(=O)[nH]c(C)n2)cn1 (single isomer, unassigned) [Example 2] | 43.9
2 | Cc1nc(-c2cnn(C(C)c3ccc(C(F)(F)F)cc3C)c2)cc(=O)[nH]1 (single isomer, unassigned) [Example 57, (S)- or (R)-2-methyl-6-(1-(1-(2-methyl-4-(trifluoromethyl)phenyl)ethyl)-1H-pyrazol-4-yl)pyrimidin-4(3H)-one] | 13.1
3 | COc1ccc(Cc2nc(-c3cnn(C(C)c4ccc(C(F)(F)F)cc4)c3)cc(=O)[nH]2)cc1OC (single isomer, unassigned) [Example 60, (R)- or (S)-2-(3,4-dimethoxybenzyl)-6-(1-(1-4-(trifluoromethyl)phenyl)ethyl)-1H-pyrazol-4-yl)pyrimidin-4(3H)-one] | 3.6

Same assay, conditions: Lab B; read-out: Rhesus PDE2 Ki (nM) Lab B

Row | Compound | Ki [nM]
4 | COc1cc(C(F)(F)F)ccc1[C@@H](C)n1cc(-c2cc(=O)[nH]c(C)n2)cn1 (single isomer, unassigned) [Example 2] | 35.3
5 | Cc1nc(-n2cc([C@H](C)c3ccc(C(F)(F)F)cc3)cn2)cc(=O)[nH]1 (single isomer, unassigned) [Example 3] | 93
6 | Cc1nc(-n2cc([C@H](C)c3ccc(C(F)(F)F)cc3)cn2)cc(=O)[nH]1 (single isomer, unassigned) [Example 4] | 29.5
7 | Cc1nc(-n2ccc([C@H](C)c3ccc(C(F)(F)F)cc3)n2)cc(=O)[nH]1 (single isomer, unassigned) [Example 5] | 285
8 | Cc1nc(-n2ccc([C@H](C)c3ccc(C(F)(F)F)cc3)n2)cc(=O)[nH]1 (single isomer, unassigned) [Example 6] | 466
9 | Cc1nc(-n2cc([C@](C)(O)c3ccc(C(F)(F)F)cc3F)cn2)cc(=O)[nH]1 (single isomer, unassigned) [Example 15] | 15.6
10 | Cc1nc(-n2cc([C@](C)(O)c3ccc(C(F)(F)F)cc3F)cn2)cc(=O)[nH]1 (single isomer, unassigned) [Example 16] | 75.8
11 | Cc1nc(-n2cc([C@H](CO)c3ccc(C(F)(F)F)cc3F)cn2)cc(=O)[nH]1 (single isomer, unassigned) [Example 19] | 105
12 | Cc1nc(-n2cc([C@H](CO)c3ccc(C(F)(F)F)cc3F)cn2)cc(=O)[nH]1 (single isomer, unassigned) [Example 20] | 18.2
13 | Cc1nc(-n2cc([C@]3(c4ccc(C(F)(F)F)cc4)CCCO3)cn2)cc(=O)[nH]1 (single isomer, unassigned) [Example 21] | 213
14 | Cc1nc(-n2cc([C@]3(c4ccc(C(F)(F)F)cc4)CCCO3)cn2)cc(=O)[nH]1 (single isomer, unassigned) [Example 22] | 41.9
15 | Cc1nc(-c2cc([C@H](C)c3ccc(C(F)(F)F)cc3)[nH]n2)cc(=O)[nH]1 (single isomer, unassigned) [Example 23] | 29.3
16 | Cc1nc(-c2cc([C@H](C)c3ccc(C(F)(F)F)cc3)[nH]n2)cc(=O)[nH]1 (single isomer, unassigned) [Example 24] | 154
17 | Cc1nc(-n2cc(C3(C)OCc4cc(C(F)(F)F)ccc43)cn2)cc(=O)[nH]1 (single isomer, unassigned) [Example 27] | 98
18 | Cc1nc(-n2cc(C3(C)OCc4cc(C(F)(F)F)ccc43)cn2)cc(=O)[nH]1 (single isomer, unassigned) [Example 28] | 94.5
19 | Cc1nc(-n2cc(C(C)c3ccc(C(F)(F)F)cc3F)cn2)cc(=O)[nH]1 (single isomer, unassigned) [Example 52, (R)- or (S)-6-(4-(1-(2-fluoro-4-(trifluoromethyl)phenyl)ethyl)-1H-pyrazol-1-yl)-2-methylpyrimidin-4(3H)-one] | 7.2
20 | Cc1nc(-n2cc(C(C)c3ccc(C(F)(F)F)cc3F)cn2)cc(=O)[nH]1 (single isomer, unassigned) [Example 53, (S)- or (R)-6-(4-(1-(2-fluoro-4-(trifluoromethyl)phenyl)ethyl)-1H-pyrazol-1-yl)-2-methylpyrimidin-4(3H)-one] | 64.5
21 | Cc1nc(-c2cnn(C(C)c3ccc(C(F)(F)F)cc3C)c2)cc(=O)[nH]1 (single isomer, unassigned) [Example 57, (S)- or (R)-2-methyl-6-(1-(1-(2-methyl-4-(trifluoromethyl)phenyl)ethyl)-1H-pyrazol-4-yl)pyrimidin-4(3H)-one] | 13
22 | COc1ccc(Cc2nc(-c3cnn(C(C)c4ccc(C(F)(F)F)cc4)c3)cc(=O)[nH]2)cc1OC (single isomer, unassigned) [Example 60, (R)- or (S)-2-(3,4-dimethoxybenzyl)-6-(1-(1-4-(trifluoromethyl)phenyl)ethyl)-1H-pyrazol-4-yl)pyrimidin-4(3H)-one] | 2.4
